Consider six molecules from patent US12172974B2 (Biohaven Pharmaceutical Holding Company Ltd., priority 2012, dated 2024).

Common to all, as to type: in vitro ADME
The nature of data set [1]: Plasma stability in fresh mouse plasma. As to conditions: 1 uM, 37° C. Here is the method:
(§1) Plasma Stability: Assessment of plasma stability was carried out by individual incubations of drug candidates in fresh mouse or human control plasma at a concentration of 1 uM for 1 hour at 37° C. After which, the samples were de-proteinized by addition of 2 volumes of acetonitrile containing 0.1% formic acid and internal standard, vortex mixed for 2 minutes and centrifuged at 4000 rpm for 10 minutes to pellet precipitated protein. The resulting supernatant containing the drug candidates was diluted 5-fold with water containing 0.1% formic acid and submitted to LC-MS/MS analysis. All determinations were done in triplicate. […]
(§2) LC-MS/MS Analysis: An aliquot from each incubation was analyzed by LC-MS/MS with SRM detection in the positive ionization mode using an ABSciex API 5500 QTrap Mass Spectrometer interfaced via the ABSciex Turbo V IonSpray source (ESI) to an Eksigent ExpressHT LC system. […] A fast gradient, from 15 to 85% organic in 2.5 minutes, with run time of 5.0 minutes, and flow rate of 50 ul/min was utilized. Peak areas were integrated using MultiQuant v2.0 software from ABSciex.

The nature of data set [2]: Metabolic stability in pooled human liver microsomes. As to conditions: human liver microsomes 0.5 mg/mL, 1 uM, 37° C., NADPH. Here is the method: (§3) Metabolic Stability: In vitro metabolic stability was determined in pooled mouse or human liver microsomes (BD Gentest) at a protein concentration of 0.5 mg/mL in reaction buffer (100 mM KH2PO4, pH 7.4 and 12 mM MgCl2). Each drug candidate was added to a final concentration of 1 uM. This mixture was pre-warmed to 37° C. for 10 minutes prior to starting the reaction with the addition of β-Nicotinamide adenine dinucleotide 2′-phosphate reduced (NADPH) to a final concentration of 1 mM. A parallel incubation lacking NADPH served as the control. After incubation for 30 min at 37° C., the reactions were quenched by the addition of acetonitrile containing 0.1% formic acid and internal standard, vortex mixed for 2 minutes and centrifuged at 4000 rpm for 10 minutes to pellet the precipitated protein. The resulting supernatant containing the drug candidate and its potential metabolites was diluted 5-fold with water containing 0.1% formic acid and submitted to LC-MS/MS analysis. […]
as §2
For orientation: Liver microsomes are vesicles of endoplasmic reticulum, rich in cytochrome P450 enzymes.

The nature of data set [3]: Stability in Simulated Gastric Fluid (SGF). As to conditions: 37° C., 0.01 mg/mL. How it is done:
(§4) Stability in Simulated Gastric Fluid (SGF) and Simulated Intestinal Fluid (SIF). Procedure from Baudy et. al. (J. Med. Chem. 2009, 52, 771-778) used. The physiological stability of prodrugs was determined by examining the stability of the compound in SGF, and SIF at 37° C. The compounds were prepared in a 9:1 mixture of the appropriate test component (SGF, SIF) and acetonitrile to a final concentration of 0.01 mg/mL. The samples were thoroughly mixed and maintained at 37° C. Each sample was injected consecutively onto an Agilent 1100 system (Luna C18, 3 μm, 50 mm×3 mm; 1 mL/min; mobile phase of 0.1% trifluoroacetic acid in water/0.1% trifluoroacetic acid in acetonitrile) after a 3 h period. The percent remaining of prodrug was calculated by comparing the area of prodrug compound versus riluzole generated. The identities of the parent compounds and conversion products were confirmed by LC/MS.

Data set [4] in a line: Plasma stability in fresh human plasma. Conditions: 1 uM, 37° C. Here is the method:
as §1, §2

Data set [5] in a line: Metabolic stability in pooled mouse liver microsomes. As to conditions: mouse liver microsomes 0.5 mg/mL, 1 uM, 37° C., NADPH. Here is the method:
as §3, §2

Data set [6] in a line: Stability in Simulated Intestinal Fluid (SIF). Conditions: 37° C., 0.01 mg/mL. Here is the method:
as §4

SMILES strings stand for the structures.

As to `N[C@H](Cc1ccccc1)C(=O)Nc1nc2ccc(OC(F)(F)F)cc2s1` [Cpd 4, (R)-2-Amino-3-phenyl-N-(6-trifluoromethoxy-benzothiazol-2-yl)-propionamide], in data set [1], the “Plasma Stability mouse (1 hour): percent of prodrug metabolized to riluzole” value (“Plasma Stability mouse (1 hour): percent” below) is 47%. In addition, the “Metabolic Stability human (30 minutes): percent of prodrug metabolized to riluzole” value in data set [2] was 18%. The “SGF (3 hours): percent of prodrug metabolized to riluzole” value (from here on “SGF (3 hours): percent”) in data set [3] is recorded as 3%. The “Plasma Stability Human (1 hour): percent of prodrug metabolized to riluzole” value (“Plasma Stability Human (1 hour): percent” for short) in data set [4] is listed as 6%. Moreover, in data set [5], the “Metabolic Stability mouse (30 minutes): percent of prodrug metabolized to riluzole” value stood at 12%. Besides, the “SIF (3 hours): percent of prodrug metabolized to riluzole” value (shortened to “SIF (3 hours): percent”) in data set [6] is recorded as 0%.
Take `CC(C)COC(=O)Nc1nc2ccc(OC(F)(F)F)cc2s1` [Cpd 16, (6-Trifluoromethoxy-benzothiazol-2-yl)-carbamic acid isobutyl ester]: the “Plasma Stability mouse (1 hour): percent” value in data set [1] turned out to be 0%. Also, the “Metabolic Stability human (30 minutes): percent of prodrug metabolized to riluzole” value in data set [2] was determined as 14%. Also, in data set [3], the “SGF (3 hours): percent” value is given as 5%. The “Plasma Stability Human (1 hour): percent” value in data set [4] was 0%. For the same molecule, the “Metabolic Stability mouse (30 minutes): percent of prodrug metabolized to riluzole” value in data set [5] worked out at 23%. The “SIF (3 hours): percent” value in data set [6] is recorded as 0%.
On to `COC(=O)CCC(=O)Nc1nc2ccc(OC(F)(F)F)cc2s1` [Cpd 21, N-(6-Trifluoromethoxy-benzothiazol-2-yl)-succinamic acid methyl ester], for which, in data set [1], the “Plasma Stability mouse (1 hour): percent” value was found to be 99%. Besides, the “Metabolic Stability human (30 minutes): percent of prodrug metabolized to riluzole” value in data set [2] amounted to 34%. The “SGF (3 hours): percent” value in data set [3] is 3%. Also, the “Plasma Stability Human (1 hour): percent” value in data set [4] turned out to be 25%. In addition, the “Metabolic Stability mouse (30 minutes): percent of prodrug metabolized to riluzole” value in data set [5] came to 77%. In addition, in data set [6], the “SIF (3 hours): percent” value is reported as 0%.
For the molecule `CNCCCCC(=O)Nc1nc2ccc(OC(F)(F)F)cc2s1` [Cpd 25, 5-Methylamino-pentanoic acid (6-trifluoromethoxy-benzothiazol-2-yl)-amide], the “Plasma Stability mouse (1 hour): percent” value in data set [1] is listed as 0%. Further, in data set [2], the “Metabolic Stability human (30 minutes): percent of prodrug metabolized to riluzole” value came to 0%. Further, the “SGF (3 hours): percent” value in data set [3] is 0%. In addition, the “Plasma Stability Human (1 hour): percent” value in data set [4] is recorded as 0%. Further, the “Metabolic Stability mouse (30 minutes): percent of prodrug metabolized to riluzole” value in data set [5] is 78%. In addition, the “SIF (3 hours): percent” value in data set [6] was 0%.
As to `CN(C)CCCOC(=O)Nc1nc2ccc(OC(F)(F)F)cc2s1` [Cpd 19, (6-Trifluoromethoxy-benzothiazol-2-yl)-carbamic acid 3-dimethylamino-propyl ester], the “Plasma Stability mouse (1 hour): percent” value in data set [1] worked out at 0%. Moreover, the “Metabolic Stability human (30 minutes): percent of prodrug metabolized to riluzole” value in data set [2] worked out at 0%. Further, in data set [3], the “SGF (3 hours): percent” value was 0%. The “Plasma Stability Human (1 hour): percent” value in data set [4] is reported as 0%. Besides, the “Metabolic Stability mouse (30 minutes): percent of prodrug metabolized to riluzole” value in data set [5] came to 71%. Further, the “SIF (3 hours): percent” value in data set [6] was 0%.
As to `CC(C)[C@H](N)C(=O)Nc1nc2ccc(OC(F)(F)F)cc2s1` [Cpd 11, (S)-2-Amino-3-methyl-N-(6-trifluoromethoxy-benzothiazol-2-yl)-butyramide], the “Plasma Stability mouse (1 hour): percent” value in data set [1] was found to be 45%. Besides, the “Metabolic Stability human (30 minutes): percent of prodrug metabolized to riluzole” value in data set [2] turned out to be 6%. In addition, the “SGF (3 hours): percent” value in data set [3] is 0%. The “Plasma Stability Human (1 hour): percent” value in data set [4] turned out to be 11%. In addition, the “Metabolic Stability mouse (30 minutes): percent of prodrug metabolized to riluzole” value in data set [5] is given as 40%. Also, the “SIF (3 hours): percent” value in data set [6] was 40%.
